Experimental data published in PubChem BioAssay AID2060614 (Molecular Pharmacology Branch, DTP, NCI, 2025).
Several values for one entry are separate records, joined by “and”; a condition that tells them apart may be missing. Equal values may be shown once.

Tested on: 598228-144-R-J1-PDC complex spheroids, viability
Experiment: Anticancer human tumor 598228-144-R-J1-PDC patient-derived serous endometrial adenocarcinoma cell line growth inhibition [CLK]
Details: for viability, T/C: stronger effect = lower value
Outline: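 Multi-cell-type spheroids combined patient-derived tumor cells with HUVEC endothelial cells and human mesenchymal stem cells. Paired agents were dosed in half-log steps down from about clinical Cmax, or from 10 microM where Cmax was unknown.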
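Further: spheroids exposed to compounds for seven days before readout.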
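Wherever viability, T/C is given: 100% = DMSO vehicle control wells.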

In the case of CCc1c2c(nc3ccc(O)cc13)-c1cc3c(c(=O)n1C2)COC(=O)[C@]3(O)CC + CNC(=O)c1ccc(Nc2nc(OC3CCCC3)c3c(-c4ccc5nc(C)oc5c4)c[nH]c3n2)c(OC)c1, the IC50 (curve of first compound, second compound 0.0316 µM) is reported as 51.5 nM, the IC50 (curve of first compound, second compound 0.1 µM) is reported as 56.4 nM and the IC50 (curve of first compound, second compound 0.316 µM) is reported as 100 nM. The IC50 (curve of first compound, second compound 1 µM) was 61.5 nM, the IC50 (curve of first compound, second compound 3.16 µM) was 54.2 nM and the IC50 (curve of first compound, second compound 10 µM) was 33.2 nM. The viability, T/C (second compound 0.0316 µM, first compound 0.00316 µM) was 91%, the viability, T/C (second compound 0.0316 µM, first compound 0.01 µM) was 77.3% and the viability, T/C (second compound 0.0316 µM, first compound 0.0316 µM) was 65.9%. It also gave a viability, T/C (second compound 0.0316 µM, first compound 0.1 µM) of 30.8%, a viability, T/C (second compound 0.0316 µM, first compound 0.316 µM) of 14.4% and a viability, T/C (second compound 0.0316 µM, first compound 1 µM) of 6.44%. For the same compound, the viability, T/C (second compound 0.1 µM, first compound 0.00316 µM) was 106%, the viability, T/C (second compound 0.1 µM, first compound 0.01 µM) was 84.5% and the viability, T/C (second compound 0.1 µM, first compound 0.0316 µM) was 65.2%. For the same compound, the viability, T/C (second compound 0.1 µM, first compound 0.1 µM) was 38.5%, the viability, T/C (second compound 0.1 µM, first compound 0.316 µM) was 16.2% and the viability, T/C (second compound 0.1 µM, first compound 1 µM) was 14.9%. For the same compound, the viability, T/C (second compound 0.316 µM, first compound 0.00316 µM) was 124%, the viability, T/C (second compound 0.316 µM, first compound 0.01 µM) was 111% and the viability, T/C (second compound 0.316 µM, first compound 0.0316 µM) was 97%. The viability, T/C (second compound 0.316 µM, first compound 0.1 µM) was 48.3%, the viability, T/C (second compound 0.316 µM, first compound 0.316 µM) was 21.6% and the viability, T/C (second compound 0.316 µM, first compound 1 µM) was 10.5%. For the same compound, the viability, T/C (second compound 1 µM, first compound 0.00316 µM) was 117%, the viability, T/C (second compound 1 µM, first compound 0.01 µM) was 95% and the viability, T/C (second compound 1 µM, first compound 0.0316 µM) was 73.8%. The viability, T/C (second compound 1 µM, first compound 0.1 µM) was 33.2%, the viability, T/C (second compound 1 µM, first compound 0.316 µM) was 16.3% and the viability, T/C (second compound 1 µM, first compound 1 µM) was 10.8%. The viability, T/C (second compound 3.16 µM, first compound 0.00316 µM) was 108%, the viability, T/C (second compound 3.16 µM, first compound 0.01 µM) was 95.9% and the viability, T/C (second compound 3.16 µM, first compound 0.0316 µM) was 63.9%. It also gave a viability, T/C (second compound 3.16 µM, first compound 0.1 µM) of 32.9%, a viability, T/C (second compound 3.16 µM, first compound 0.316 µM) of 17.3% and a viability, T/C (second compound 3.16 µM, first compound 1 µM) of 8.19%. The viability, T/C (second compound 10 µM, first compound 0.00316 µM) was 110%, the viability, T/C (second compound 10 µM, first compound 0.01 µM) was 85.9% and the viability, T/C (second compound 10 µM, first compound 0.0316 µM) was 49.3%. The viability, T/C (second compound 10 µM, first compound 0.1 µM) was 27.5%, the viability, T/C (second compound 10 µM, first compound 0.316 µM) was 13.8% and the viability, T/C (second compound 10 µM, first compound 1 µM) was 9.24%.
CC(=O)O[C@H]1C(=O)[C@@]2(C)[C@H]([C@H](OC(=O)c3ccccc3)[C@]3(O)C[C@H](OC(=O)[C@H](O)[C@@H](NC(=O)c4ccccc4)c4ccccc4)C(C)=C1C3(C)C)[C@]1(OC(C)=O)CO[C@@H]1C[C@@H]2O was tested, and the viability, T/C (compound 0.0316 µM) was 35.4% and 37%, the viability, T/C (compound 0.1 µM) was 33.6% and 37% and the viability, T/C (compound 0.316 µM) was 31% and 30.4%. The viability, T/C (compound 1 µM) was 25.1% and 34.2%, the viability, T/C (compound 3.16 µM) was 32.1% and 36.1% and the viability, T/C (compound 10 µM) was 32.5% and 47.5%. The IC50 (curve of compound) was < 31.6 nM.
